In experiment [1] the target is T1, Glycogen phosphorylase, liver form (Homo sapiens, UniProt P06737).
T1 sequence (P06737 whole entry): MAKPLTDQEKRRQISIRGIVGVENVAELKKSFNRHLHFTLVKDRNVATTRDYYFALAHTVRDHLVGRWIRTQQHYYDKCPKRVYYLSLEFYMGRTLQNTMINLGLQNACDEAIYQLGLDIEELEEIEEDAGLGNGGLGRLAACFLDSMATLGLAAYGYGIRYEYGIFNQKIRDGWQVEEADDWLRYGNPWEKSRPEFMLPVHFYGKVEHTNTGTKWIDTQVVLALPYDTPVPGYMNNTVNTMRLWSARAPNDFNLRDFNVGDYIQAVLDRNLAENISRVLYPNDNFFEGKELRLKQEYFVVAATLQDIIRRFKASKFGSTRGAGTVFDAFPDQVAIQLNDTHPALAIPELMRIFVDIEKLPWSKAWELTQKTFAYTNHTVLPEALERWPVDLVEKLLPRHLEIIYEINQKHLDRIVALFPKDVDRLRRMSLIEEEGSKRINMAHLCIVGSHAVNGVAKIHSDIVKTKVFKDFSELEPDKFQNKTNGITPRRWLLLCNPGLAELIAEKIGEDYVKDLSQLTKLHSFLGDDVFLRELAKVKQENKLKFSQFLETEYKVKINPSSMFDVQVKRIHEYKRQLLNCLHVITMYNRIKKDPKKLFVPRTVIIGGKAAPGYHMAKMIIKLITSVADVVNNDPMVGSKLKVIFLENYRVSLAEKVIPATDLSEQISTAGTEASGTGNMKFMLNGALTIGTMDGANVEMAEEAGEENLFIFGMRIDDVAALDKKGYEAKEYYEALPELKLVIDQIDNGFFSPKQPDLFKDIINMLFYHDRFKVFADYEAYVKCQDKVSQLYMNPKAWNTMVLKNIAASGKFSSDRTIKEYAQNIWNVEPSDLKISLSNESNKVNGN
The experiment is classed as subcellular, K-562, COLO 205, SK-N-BE(2) and MV-4-11, Cell lysate. As to conditions: read-out: Kd apparent.

The target in another experiment is Adenosine kinase (Homo sapiens, UniProt P55263).
For experiment [2], the target named is Bone morphogenetic protein receptor type-1B (Homo sapiens, UniProt O00238).
Experiment [3] deals with DnaJ homolog subfamily A member 1 (Homo sapiens, UniProt P31689).
The target of experiment [4] is Tyrosine-protein kinase Fer (Homo sapiens, UniProt P16591).
For experiment [5], the target named is T2, Interleukin-1 receptor-associated kinase 4 (Homo sapiens, UniProt Q9NWZ3).
T2 sequence (Q9NWZ3 whole entry): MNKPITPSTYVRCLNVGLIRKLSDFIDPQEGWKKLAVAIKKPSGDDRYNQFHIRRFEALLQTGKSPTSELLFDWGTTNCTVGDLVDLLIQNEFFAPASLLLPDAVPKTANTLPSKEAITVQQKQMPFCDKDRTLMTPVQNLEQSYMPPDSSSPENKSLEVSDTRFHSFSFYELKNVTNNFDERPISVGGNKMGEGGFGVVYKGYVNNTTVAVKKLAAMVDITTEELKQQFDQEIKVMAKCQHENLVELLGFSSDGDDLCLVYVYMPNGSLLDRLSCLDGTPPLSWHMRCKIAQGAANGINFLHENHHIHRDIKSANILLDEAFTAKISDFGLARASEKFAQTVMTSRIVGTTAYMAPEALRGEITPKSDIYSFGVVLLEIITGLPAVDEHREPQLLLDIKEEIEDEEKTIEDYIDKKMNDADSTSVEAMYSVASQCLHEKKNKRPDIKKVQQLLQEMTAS

For experiment [6], the target named is Mitogen-activated protein kinase 8 (Homo sapiens, UniProt P45983).
Experiment [7] concerns the target T3, Dynamin-like GTPase OPA1, mitochondrial (Homo sapiens, UniProt O60313).
T3 sequence (O60313 whole entry): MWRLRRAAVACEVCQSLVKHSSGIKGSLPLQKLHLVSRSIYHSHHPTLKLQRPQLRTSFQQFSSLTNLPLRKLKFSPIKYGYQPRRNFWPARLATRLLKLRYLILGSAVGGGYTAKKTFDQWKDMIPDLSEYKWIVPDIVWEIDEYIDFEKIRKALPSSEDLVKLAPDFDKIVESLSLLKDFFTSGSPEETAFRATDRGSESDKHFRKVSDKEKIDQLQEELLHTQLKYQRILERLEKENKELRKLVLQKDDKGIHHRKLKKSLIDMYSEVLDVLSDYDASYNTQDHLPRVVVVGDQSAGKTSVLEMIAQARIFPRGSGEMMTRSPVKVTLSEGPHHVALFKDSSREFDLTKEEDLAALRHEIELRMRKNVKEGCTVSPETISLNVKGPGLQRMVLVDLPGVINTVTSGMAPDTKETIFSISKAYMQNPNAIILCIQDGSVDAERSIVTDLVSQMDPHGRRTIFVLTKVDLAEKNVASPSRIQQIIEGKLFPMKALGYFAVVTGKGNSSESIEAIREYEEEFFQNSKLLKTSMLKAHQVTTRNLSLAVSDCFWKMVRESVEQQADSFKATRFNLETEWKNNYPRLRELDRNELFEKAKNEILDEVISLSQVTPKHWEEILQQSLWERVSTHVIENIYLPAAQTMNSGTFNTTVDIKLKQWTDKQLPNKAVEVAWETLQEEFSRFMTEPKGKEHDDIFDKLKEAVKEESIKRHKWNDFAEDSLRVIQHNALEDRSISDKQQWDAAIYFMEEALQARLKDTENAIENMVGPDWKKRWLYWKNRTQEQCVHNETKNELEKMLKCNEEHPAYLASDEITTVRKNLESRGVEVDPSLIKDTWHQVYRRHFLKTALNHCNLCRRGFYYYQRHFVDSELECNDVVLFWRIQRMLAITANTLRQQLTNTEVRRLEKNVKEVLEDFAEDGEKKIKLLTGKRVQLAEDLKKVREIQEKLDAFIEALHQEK

Experiment [8] has as its target Platelet-derived growth factor receptor beta (Homo sapiens, UniProt P09619).
Experiment [9] concerns the target Protein kinase C alpha type (Homo sapiens, UniProt P17252).
For experiment [10], the target named is GTP-binding nuclear protein Ran (Homo sapiens, UniProt P62826).
In experiment [11] the target is U5 small nuclear ribonucleoprotein 200 kDa helicase (Homo sapiens, UniProt O75643).
Experiment [12] has as its target Serine/threonine-protein kinase 16 (Homo sapiens, UniProt O75716).
The target in experiment [13] is Serine/threonine-protein kinase 26 (Homo sapiens, UniProt Q9P289).

Molecules are shown by their SMILES. Activity calls are given as the source filed them. Cut-off read from the data, not from the text of the source, for most assays here: actives have a measured Kd and inactives only a lower limit.
Note: in the data inactive means no Kd found up to 30 µM.

U5 small nuclear ribonucleoprotein 200 kDa helicase, sequence (O75643 whole entry): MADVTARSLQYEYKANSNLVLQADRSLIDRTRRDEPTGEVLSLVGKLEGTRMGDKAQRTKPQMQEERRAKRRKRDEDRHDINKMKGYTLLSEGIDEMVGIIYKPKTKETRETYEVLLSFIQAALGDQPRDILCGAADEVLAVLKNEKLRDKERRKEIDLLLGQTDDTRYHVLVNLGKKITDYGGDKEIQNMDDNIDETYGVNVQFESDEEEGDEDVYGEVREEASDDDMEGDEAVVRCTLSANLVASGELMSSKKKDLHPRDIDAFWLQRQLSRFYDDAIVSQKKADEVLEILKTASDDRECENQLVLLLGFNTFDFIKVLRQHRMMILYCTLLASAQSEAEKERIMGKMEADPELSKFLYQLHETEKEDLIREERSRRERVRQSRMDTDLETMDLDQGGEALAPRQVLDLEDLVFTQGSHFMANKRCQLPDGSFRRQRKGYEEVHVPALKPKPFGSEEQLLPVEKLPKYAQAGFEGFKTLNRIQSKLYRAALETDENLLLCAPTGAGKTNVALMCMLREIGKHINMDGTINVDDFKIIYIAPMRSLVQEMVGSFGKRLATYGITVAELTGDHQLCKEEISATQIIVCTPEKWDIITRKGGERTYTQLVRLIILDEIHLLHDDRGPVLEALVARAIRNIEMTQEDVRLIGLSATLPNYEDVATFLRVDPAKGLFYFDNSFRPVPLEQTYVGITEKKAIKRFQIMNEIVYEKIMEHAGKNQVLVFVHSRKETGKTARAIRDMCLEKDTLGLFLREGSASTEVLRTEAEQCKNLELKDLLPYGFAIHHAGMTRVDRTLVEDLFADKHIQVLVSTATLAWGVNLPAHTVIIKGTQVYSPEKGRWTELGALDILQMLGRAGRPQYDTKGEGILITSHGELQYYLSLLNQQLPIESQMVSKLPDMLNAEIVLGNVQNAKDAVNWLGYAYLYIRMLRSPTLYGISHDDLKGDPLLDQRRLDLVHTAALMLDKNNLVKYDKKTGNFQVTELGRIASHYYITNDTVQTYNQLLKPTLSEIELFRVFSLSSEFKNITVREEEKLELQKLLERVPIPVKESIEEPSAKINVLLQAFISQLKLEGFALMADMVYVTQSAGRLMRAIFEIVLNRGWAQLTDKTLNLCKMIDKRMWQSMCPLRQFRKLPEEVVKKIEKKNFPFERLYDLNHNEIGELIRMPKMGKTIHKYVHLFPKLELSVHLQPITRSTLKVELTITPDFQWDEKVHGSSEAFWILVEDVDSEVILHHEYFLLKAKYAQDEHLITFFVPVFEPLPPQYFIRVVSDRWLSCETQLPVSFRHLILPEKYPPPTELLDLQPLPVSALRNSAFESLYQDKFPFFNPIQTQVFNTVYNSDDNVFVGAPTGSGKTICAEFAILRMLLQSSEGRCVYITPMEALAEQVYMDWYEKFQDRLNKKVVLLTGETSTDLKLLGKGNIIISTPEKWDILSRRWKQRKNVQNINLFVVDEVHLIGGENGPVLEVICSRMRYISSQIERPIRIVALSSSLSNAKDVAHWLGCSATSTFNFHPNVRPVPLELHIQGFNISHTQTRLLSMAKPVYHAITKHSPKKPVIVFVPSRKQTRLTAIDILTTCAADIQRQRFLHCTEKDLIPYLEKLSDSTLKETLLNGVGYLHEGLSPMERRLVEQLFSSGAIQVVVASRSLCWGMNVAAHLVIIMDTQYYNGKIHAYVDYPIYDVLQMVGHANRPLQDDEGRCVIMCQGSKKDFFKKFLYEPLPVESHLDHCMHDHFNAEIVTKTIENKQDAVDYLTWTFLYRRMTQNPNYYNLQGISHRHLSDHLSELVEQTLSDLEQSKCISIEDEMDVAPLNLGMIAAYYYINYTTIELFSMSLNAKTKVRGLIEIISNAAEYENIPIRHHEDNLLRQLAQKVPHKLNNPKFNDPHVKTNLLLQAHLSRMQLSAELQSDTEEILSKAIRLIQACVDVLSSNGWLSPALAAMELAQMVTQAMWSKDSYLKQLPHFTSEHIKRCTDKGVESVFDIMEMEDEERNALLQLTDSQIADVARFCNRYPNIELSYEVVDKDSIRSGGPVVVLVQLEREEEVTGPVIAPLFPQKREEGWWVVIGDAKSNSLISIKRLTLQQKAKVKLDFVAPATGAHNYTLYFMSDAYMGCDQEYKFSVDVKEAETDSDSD
Platelet-derived growth factor receptor beta, sequence (P09619 whole entry): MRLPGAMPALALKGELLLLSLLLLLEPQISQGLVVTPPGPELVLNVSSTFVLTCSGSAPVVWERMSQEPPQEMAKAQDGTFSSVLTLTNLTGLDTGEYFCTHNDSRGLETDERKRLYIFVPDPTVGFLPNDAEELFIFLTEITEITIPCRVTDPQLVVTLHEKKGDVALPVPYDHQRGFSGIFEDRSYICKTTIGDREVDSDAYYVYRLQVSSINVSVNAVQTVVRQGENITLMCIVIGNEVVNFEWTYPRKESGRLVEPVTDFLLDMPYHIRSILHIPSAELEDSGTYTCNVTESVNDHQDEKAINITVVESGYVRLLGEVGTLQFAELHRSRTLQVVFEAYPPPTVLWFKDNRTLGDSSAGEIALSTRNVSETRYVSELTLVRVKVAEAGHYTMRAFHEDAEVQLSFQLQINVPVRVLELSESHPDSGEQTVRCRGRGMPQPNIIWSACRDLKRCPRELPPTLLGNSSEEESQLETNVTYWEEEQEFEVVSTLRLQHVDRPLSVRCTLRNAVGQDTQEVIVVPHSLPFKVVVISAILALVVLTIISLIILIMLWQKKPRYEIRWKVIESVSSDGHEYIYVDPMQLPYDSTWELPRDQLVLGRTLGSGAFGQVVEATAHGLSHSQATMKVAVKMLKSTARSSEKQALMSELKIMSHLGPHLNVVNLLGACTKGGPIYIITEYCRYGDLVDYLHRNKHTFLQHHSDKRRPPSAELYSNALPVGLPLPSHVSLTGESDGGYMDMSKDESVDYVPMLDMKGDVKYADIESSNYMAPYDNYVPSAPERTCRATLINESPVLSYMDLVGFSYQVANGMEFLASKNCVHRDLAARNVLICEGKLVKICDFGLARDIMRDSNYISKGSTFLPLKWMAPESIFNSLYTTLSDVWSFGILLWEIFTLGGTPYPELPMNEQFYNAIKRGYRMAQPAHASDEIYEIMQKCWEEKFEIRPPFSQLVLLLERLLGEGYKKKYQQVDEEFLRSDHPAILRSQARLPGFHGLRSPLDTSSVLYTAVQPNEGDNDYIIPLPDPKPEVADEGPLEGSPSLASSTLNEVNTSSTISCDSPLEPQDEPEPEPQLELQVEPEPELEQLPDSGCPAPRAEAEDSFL
Mitogen-activated protein kinase 8, sequence (P45983 whole entry): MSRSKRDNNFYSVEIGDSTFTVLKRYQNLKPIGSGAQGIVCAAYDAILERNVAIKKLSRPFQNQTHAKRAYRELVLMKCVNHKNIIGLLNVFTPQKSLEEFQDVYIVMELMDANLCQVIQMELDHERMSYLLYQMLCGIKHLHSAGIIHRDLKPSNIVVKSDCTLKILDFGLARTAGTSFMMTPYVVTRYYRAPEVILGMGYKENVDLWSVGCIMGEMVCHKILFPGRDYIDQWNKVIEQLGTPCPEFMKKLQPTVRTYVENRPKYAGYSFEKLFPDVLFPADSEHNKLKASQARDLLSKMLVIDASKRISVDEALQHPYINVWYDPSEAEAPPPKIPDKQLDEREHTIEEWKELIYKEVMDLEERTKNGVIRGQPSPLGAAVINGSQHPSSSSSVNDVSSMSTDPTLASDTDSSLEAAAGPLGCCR
Tyrosine-protein kinase Fer, sequence (P16591 whole entry): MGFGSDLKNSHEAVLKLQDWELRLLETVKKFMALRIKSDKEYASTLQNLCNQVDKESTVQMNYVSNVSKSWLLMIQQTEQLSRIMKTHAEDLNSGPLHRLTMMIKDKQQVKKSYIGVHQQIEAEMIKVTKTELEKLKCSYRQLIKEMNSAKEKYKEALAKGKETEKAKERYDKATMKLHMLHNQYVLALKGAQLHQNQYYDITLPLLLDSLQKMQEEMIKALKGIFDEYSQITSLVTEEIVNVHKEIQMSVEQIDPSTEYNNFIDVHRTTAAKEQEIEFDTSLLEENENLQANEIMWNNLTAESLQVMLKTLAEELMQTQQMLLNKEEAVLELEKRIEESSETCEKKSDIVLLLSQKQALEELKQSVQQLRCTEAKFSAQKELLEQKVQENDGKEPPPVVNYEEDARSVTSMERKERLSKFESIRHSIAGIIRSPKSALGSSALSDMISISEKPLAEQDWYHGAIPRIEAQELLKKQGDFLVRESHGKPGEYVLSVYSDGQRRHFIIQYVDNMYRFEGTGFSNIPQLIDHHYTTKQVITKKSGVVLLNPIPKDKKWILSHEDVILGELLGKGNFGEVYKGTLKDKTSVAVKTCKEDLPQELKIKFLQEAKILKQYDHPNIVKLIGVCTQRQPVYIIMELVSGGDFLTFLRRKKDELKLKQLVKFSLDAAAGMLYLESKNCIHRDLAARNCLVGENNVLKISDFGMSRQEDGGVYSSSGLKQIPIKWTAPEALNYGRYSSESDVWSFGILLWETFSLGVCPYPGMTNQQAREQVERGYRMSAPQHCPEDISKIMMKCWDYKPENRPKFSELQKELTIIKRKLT
DnaJ homolog subfamily A member 1, sequence (P31689 whole entry): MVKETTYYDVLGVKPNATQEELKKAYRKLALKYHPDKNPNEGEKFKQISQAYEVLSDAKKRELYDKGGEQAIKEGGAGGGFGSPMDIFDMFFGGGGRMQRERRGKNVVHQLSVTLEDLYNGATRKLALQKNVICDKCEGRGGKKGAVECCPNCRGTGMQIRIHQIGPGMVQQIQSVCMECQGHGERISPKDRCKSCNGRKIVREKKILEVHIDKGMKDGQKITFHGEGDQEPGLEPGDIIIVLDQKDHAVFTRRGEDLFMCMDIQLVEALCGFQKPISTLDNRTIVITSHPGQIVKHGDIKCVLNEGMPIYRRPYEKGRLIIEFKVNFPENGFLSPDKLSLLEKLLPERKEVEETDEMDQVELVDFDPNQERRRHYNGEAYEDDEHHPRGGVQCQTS

In the case of `C[C@@H]1CN(Cc2ccc(F)cc2)[C@@H](C)CN1C(=O)c1cc2c(C(=O)C(=O)N(C)C)cn(C)c2cc1Cl` [TALMAPIMOD], the Kd (in experiment [1]; at Adenosine kinase; in experiment [2]; in experiment [3]; in experiment [4]; in experiment [5]) was > 30 µM (inactive) each time. For the same molecule, the Kd in experiment [6], in [7], in [8], in experiment [9], in experiment [10] and in experiment [11] was > 30 µM (inactive) throughout. The Kd in [12] and in experiment [13] was > 30 µM (inactive) throughout.

As to `CNC(=O)c1ccc(C)c(-n2c(C)cc(OCc3ccc(F)cc3F)c(Br)c2=O)c1` [PH-797804], the Kd (in experiment [1]; on Adenosine kinase; in experiment [2]; in experiment [3]; in experiment [4]; in experiment [5]) was > 30 µM (inactive) throughout. Besides, the Kd in experiment [6], in [7], in [8], in experiment [9], in experiment [10] and in experiment [11] was > 30 µM (inactive) each time. The Kd in experiment [12] and in [13] was > 30 µM (inactive) in each case.

Consider `COc1cc2nccc(Oc3ccc(NC(=O)Nc4cc(C)on4)c(Cl)c3)c2cc1OC` [TIVOZANIB], for which the Kd (in [1]; on Adenosine kinase; in experiment [2]; in experiment [3]; in [4]; in experiment [5]) was > 30 µM (inactive) in each case. Moreover, the Kd in experiment [6] is > 30 µM (inactive); in [7] it was > 30 µM (inactive); in experiment [8], 2.41 µM (active); in [9], > 30 µM (inactive); in experiment [10], > 30 µM (inactive); in experiment [11], > 30 µM (inactive). In addition, the Kd in experiment [12] and in [13] was > 30 µM (inactive) in each case.

For the molecule `N[C@@H]1CCCN(c2c(/C=C3\SC(=O)NC3=O)cccc2-c2ccccc2)C1`, the Kd (in experiment [1]; on Adenosine kinase; in [2]; in experiment [3]; in [4]; in experiment [5]) was > 30 µM (inactive) each time. For the same molecule, the Kd in experiment [6], in experiment [7], in experiment [8], in experiment [9], in [10] and in [11] was > 30 µM (inactive) in each case. The Kd in [12] and in experiment [13] was > 30 µM (inactive) throughout.

For the molecule `Cc1cc([C@@H](C)Nc2ccccc2C(=O)O)c2nc(N3CCOCC3)cc(=O)n2c1` [AZD-6482], the Kd (in experiment [1]; on Adenosine kinase; in experiment [2]; in [3]; in [4]; in experiment [5]) was > 30 µM (inactive) throughout. For the same molecule, the Kd in [6], in experiment [7], in experiment [8], in experiment [9], in experiment [10] and in [11] was > 30 µM (inactive) throughout. In addition, the Kd in experiment [12] and in experiment [13] was > 30 µM (inactive) in each case.

`CN1CCC(CNc2ccc3ncc(-c4cccc(OC(F)(F)F)c4)n3n2)CC1` [SGI-1776]: the Kd (in [1]; at Adenosine kinase; in experiment [2]; in experiment [3]; in experiment [4]; in experiment [5]) was > 30 µM (inactive) in each case. In addition, the Kd was > 30 µM (inactive) in [6]; > 30 µM (inactive) in experiment [7]; 1.61 µM (active) in [8]; > 30 µM (inactive) in experiment [9]; > 30 µM (inactive) in experiment [10]; > 30 µM (inactive) in experiment [11]. Besides, the Kd in experiment [12] and in [13] was > 30 µM (inactive) throughout.

Consider `CC(C)Nc1cc(-c2c[nH]c(C(=O)N[C@H](CO)c3cccc(Cl)c3)c2)c(Cl)cn1` [ULIXERTINIB], for which the Kd (in experiment [1]; at Adenosine kinase; in experiment [2]; in experiment [3]; in experiment [4]; in experiment [5]) was > 30 µM (inactive) in each case. Further, the Kd in experiment [6], in experiment [7], in [8], in experiment [9], in experiment [10] and in experiment [11] was > 30 µM (inactive) in each case. The Kd in experiment [12] and in experiment [13] was > 30 µM (inactive) in each case.

Regarding `O=c1sn(-c2cccc3ccccc23)c(=O)n1Cc1ccccc1` [TIDEGLUSIB], the Kd (in experiment [1]; on Adenosine kinase; in experiment [2]; in [3]; in experiment [4]; in experiment [5]) was > 30 µM (inactive) each time. Further, the Kd in experiment [6], in [7], in experiment [8], in [9], in [10] and in experiment [11] was > 30 µM (inactive) throughout. In addition, the Kd in experiment [12] and in [13] was > 30 µM (inactive) in each case.

The record behind these values is ChEMBL document CHEMBL3991601, “The target landscape of clinical kinase drugs” (Science, 2017).
